Results published in US6852723B2, “Aralkyl substituted piperazine compounds” (CV Therapeutics, Inc., priority 2000, dated 2005).

How the values were obtained:
[1] = system: mitochondrial fatty acid oxidation using palmitoyl CoA as substrate; test: Palmitoyl CoA oxidation in isolated rat heart mitochondria (14C bicarbonate trapped); format: biochemical; conditions: 15 min at 30° C.
Description: (§1) Rat heart mitochodria were isolated by the method of Nedergard and Cannon (Methods in Enzymol. 55, 3, 1979).
(§2) Palmitoyl CoA oxidation—The Palmitoyl CoA oxidation was carried out in a total volume of 100 microliters containing the following agents: 110 mM KCl, 33 mM Tris buffer at pH 8, 2 mM KPi, 2 mM MgCl2, 0.1 mM EDTA, 14.7 microM defatted BSA, 0.5 mM malic acid, 13 mM carnitine, 1 mM ADP, 52 micrograms of mitochondrial protein, and 16 microM 1-C14 palmitoyl CoA (Sp. Activity 60 mCi/mmole; 20 microCi/ml, using 5 microliters per assay). The compounds of this invention were added in a DMSO solution at the following concentrations: 100 microM, 30 microM, and 3 microM. In each assay, a DMSO control was used. After 15 min at 30° C., the enzymatic reaction was centrifuged (20,000 g for 1 min), and 70 microliters of the supernatant was added to an activated reverse phase silicic acid column (approximately 0.5 ml of silicic acid). The column was eluted with 2 ml of water, and 0.5 ml of the eluent was used for scintillation counting to determine the amount of C^14 trapped as C^14 bicarbonate ion. The data are presented as % activity of control.

[2] = Metabolic stability in human liver S-9 fractions (LC/MS of parent remaining); conditions: for Liver S-9 stability factor: % parent remaining after 30 min at 37 C divided by average % ranolazine remaining (57%), 10 μM compound, 2 mg/mL S9
Description: Metabolic Stability: As a measure of metabolic stability the compounds of this invention were incubated with human liver S-9 microsomal fractions. After, 30 minutes at 37 C., the amount of parent drug remaining was determined using LC-mass spec. The response factors for each compound was determined by establishing a standard curve and using an internal standard during the analysis of the samples. […] The compounds of this invention were assayed as described in the protocol below and the percentage of parent remaining was divided by the average % of ranolazine remaining (57%) affording a metabolic stability factor.
The purpose of this experiment is to compare the percentages remaining for compounds of this invention with the percentage remaining for ranolazine after 30 minutes of incubation with human liver S9 fractions.
The following reagents were used; Potassium phosphate, 0.5M pH 74. (incubation buffer), kept at room temperature; 0.05M MgCl2 kept at 4° C.; β-Nicotinamide adenine dinucleotide phosphate, tetrasodium salt, reduced form (NADPH), 0.02M solution in water (˜16.6 mg/mL) from Sigma Lot # 79H7044 prepared on day of use.
Incubation mixtures were prepared as follows:
Combine all components with incubation buffer and re-pipette 200 μL/tube+25 μL of the compound being tested along with 25 μL of S-9.
After 5 min of pre-incubation at 37° C., at 0 and 30 min after starting the reaction, a 50 μl aliquot of the incubation mixture was removed and added to 100 μL of 9:1 acetonitrile: methanol containing the internal standard.
The mixture was centrifuged and a 100 μL aliquot of the supernatant was diluted in 1 mL of solvent C (0.1% Formic Acid in water). Then samples were analyzed for change between the ratio of compound to internal standard at time zero and 30 minutes by LC/MS (injected 10 μL).
Samples were analyzed for the starting compounds and potential metabolite/s by LC/MS using an internal standard on a Micromass platform mass spec with a Keystone Inc. BDS ODS-C18 column with a flow rate of 0.25 ml/min.

[3] = system: mitochondrial fatty acid oxidation using palmitoyl carnitine as substrate; test: Palmitoyl carnitine oxidation in isolated rat heart mitochondria (14C bicarbonate trapped); format: biochemical; conditions: 15 min at 30° C.
Description: as §1
as §2, with “Carnitine Oxidation—The” for “CoA oxidation—The”, “carnitine” for “CoA”, “0.1mg/ml of” for “14.7 microM”, “3” for “13 mM carnitine, 1”, “43” for “16”

Cc1cccc(C)c1NC(=O)CN1CCN(CC(O)CCc2ccccc2Cl)CC1 (stereo not shown) [Compound 18, N-(2,6-dimethylphenyl)-2-{4-[4-(2-chlorophenyl)-2-hydroxybutyl]piperazinyl}acetamide]
Palmitoyl CoA oxidation activity (% of DMSO control) ([1]; 100 μM compound): 78% | Liver S-9 stability factor [2]: 0.68

Cc1cccc(C)c1NC(=O)C(C)(C)N1CCN(CC(O)Cc2ccc3c(c2)OCO3)CC1 (stereo not shown) [Compound 22]
Liver S-9 stability factor [2]: 1.49

Cc1cccc(C)c1NC(=O)CN1CCN(CC(O)CCc2ccc(C(C)(C)C)cc2)CC1 (stereo not shown) [Compound 19, 2-(4-{4-[4-(tert-butyl)phenyl]-2-hydroxybutyl}piperazinyl)-N-(2,6-dimethylphenyl)acetamide]
Palmitoyl CoA oxidation activity (% of DMSO control) ([1]; 100 μM compound): 35%

COc1ccc(CC(O)CN2CCN(CC(=O)Nc3c(C)cccc3C)CC2)cc1 (stereo not shown) [Compound 11, N-(2,6-dimethylphenyl)-2-{4-[2-hydroxy-3-(4-methoxyphenyl)propyl]piperazinyl}acetamide]
Palmitoyl CoA oxidation activity (% of DMSO control) ([1]; 30 μM compound): 92% | Palmitoyl CoA oxidation activity (% of DMSO control) ([1]; 100 μM compound): 83% | Liver S-9 stability factor [2]: 1.33

Cc1cccc(C)c1NC(=O)CN1CCN(CC(O)CCc2ccc(C(F)(F)F)cc2)CC1 (stereo not shown) [Compound 21, N-(2,6-dimethylphenyl)-2-(4-{2-hydroxy-4-[4-(trifluoromethyl)phenyl]butyl}piperazinyl)acetamide]
Palmitoyl CoA oxidation activity (% of DMSO control) ([1]; 100 μM compound): 56%

Cc1cccc(C)c1NC(=O)C(C)(C)N1CCN(CC(O)Cc2ccccc2)CC1 (stereo not shown) [Compound 23, N-(2,6-Dimethyl-phenyl)-2-[4-(2-hydroxy-3-phenyl-propyl)-piperazin-1-yl]-isobutyramide]
Liver S-9 stability factor [2]: 0.5

COc1ccc(CCC(O)CN2CCN(CC(=O)Nc3c(C)cccc3C)CC2)cc1 (stereo not shown) [Compound 16, N-(2,6-dimethylphenyl)-2-{4-[4-(4-methoxyphenyl)-2-hydroxybutyl]piperazinyl}acetamide]
Palmitoyl CoA oxidation activity (% of DMSO control) ([1]; 100 μM compound): 37%

COc1ccccc1CC(O)CN1CCN(CC(=O)Nc2c(C)cccc2C)CC1 (stereo not shown) [Compound 10, N-(2,6-dimethylphenyl)-2-{4-[2-hydroxy-3(2-methoxyphenyl)-propyl]piperazinyl}acetamide]
Liver S-9 stability factor [2]: 1.03

Cc1cccc(C)c1NC(=O)CN1CCN(CC(O)Cc2ccc3c(c2)OCO3)CC1 (stereo not shown) [Compound 7, 2-[4-(3-Benzo[1,3]dioxol-5-yl-2-hydroxy-propyl)-piperazin-1-yl]-N-(2,6-dimethyl-phenyl)-acetamide]
Liver S-9 stability factor [2]: 1.46

Cc1cccc(C)c1NC(=O)CN1CCN(CC(O)CCc2ccccc2)CC1 (stereo not shown) [Compound 9, N-(2,6-dimethylphenyl)-2-[4-(2-hydroxy-4-phenylbutyl)piperazinyl]acetamide]
Palmitoyl CoA oxidation activity (% of DMSO control) ([1]; 30 μM compound): 84% | Palmitoyl CoA oxidation activity (% of DMSO control) ([1]; 100 μM compound): 84% | Liver S-9 stability factor [2]: 1.18

COc1cc(CC(O)CN2CCN(CC(=O)Nc3c(C)cccc3C)CC2)cc(OC)c1OC (stereo not shown) [Compound 24, N-(2,6-dimethylphenyl)-2-{4-[2-hydroxy-3-(3,4,5-trimethoxyphenyl)prophyl]piperazinyl}acetamide]
Palmitoyl CoA oxidation activity (% of DMSO control) ([1]; 100 μM compound): 72% | Liver S-9 stability factor [2]: 1.05

Cc1cccc(C)c1NC(=O)CN1CCN(CC(O)CCc2ccccc2F)CC1 (stereo not shown) [Compound 20, N-(2,6-dimethylphenyl)-2-{4-[4-(2-fluorophenyl)-2-hydroxybutyl]piperazinyl}acetamide]
Palmitoyl CoA oxidation activity (% of DMSO control) ([1]; 100 μM compound): 56%

Cc1cccc(C)c1NC(=O)CN1CCN(CC(O)Cc2cccc3ccccc23)CC1 (stereo not shown) [Compound 13, N-(2,6-dimethylphenyl)-2-[4-(2-hydroxy-3-naphthylpropyl)piperazinyl]acetamide]
Liver S-9 stability factor [2]: 0.10

COc1ccccc1OCC(O)CN1CCN(CC(=O)Nc2c(C)cccc2C)CC1 (racemic) [Ranolazine, (±)-N-(2,6-dimethylphenyl)-4-[2-hydroxy-3-(2-methoxyphenoxy)-propyl]-1-piperazineacetamide, reference compound]
Palmitoyl CoA oxidation activity (% of DMSO control) ([1]; 30 μM compound): 90% | Palmitoyl CoA oxidation activity (% of DMSO control) ([1]; 100 μM compound): 75% | Mitochondrial palmitoyl carnitine oxidation, % activity of DMSO control ([3]; 30 μM compound): 98% | Mitochondrial palmitoyl carnitine oxidation, % activity of DMSO control ([3]; 100 μM compound): 63% | Liver S-9 stability factor [2]: 1.0 | percentage of ranolazine remaining at the 30 minute time point ([2]; human liver S-9, 30 minutes at 37 C, average of five experiments): 57%

Cc1cccc(C)c1NC(=O)CN1CCN(CC(O)Cc2ccccc2)CC1 (stereo not shown) [Compound 12, N-(2,6-dimethylphenyl)-2-{4-[2-hydroxy-3-phenylpropyl]piperazinyl}acetamide]
Palmitoyl CoA oxidation activity (% of DMSO control) ([1]; 30 μM compound): 95% | Palmitoyl CoA oxidation activity (% of DMSO control) ([1]; 100 μM compound): 42% | Mitochondrial palmitoyl carnitine oxidation, % activity of DMSO control ([3]; 100 μM compound): 56% | Liver S-9 stability factor [2]: 1.38

Cc1cccc(C)c1NC(=O)CN1CCN(CC(O)CCc2c(F)cccc2F)CC1 (stereo not shown) [Compound 17, 2-{4-[4-(2,6-difluorophenyl)-2-hydroxybutyl]piperazinyl}-N-(2,6-dimethylphenyl)acetamide]
Palmitoyl CoA oxidation activity (% of DMSO control) ([1]; 100 μM compound): 78% | Liver S-9 stability factor [2]: 0.71
